From the supplement of paper PMC10307832

Key:
Experiment in all cases: relative viability (nuclei count vs DMSO), 5 days (fraction); higher = more cells survive
Omipalisib + Navitoclax = compound: COc1ncc(-c2ccc3nccc(-c4ccnnc4)c3c2)cc1NS(=O)(=O)c1ccc(F)cc1F [Omipalisib] + CC1(C)CCC(c2ccc(Cl)cc2)=C(CN2CCN(c3ccc(C(=O)NS(=O)(=O)c4ccc(N[C@H](CCN5CCOCC5)CSc5ccccc5)c(S(=O)(=O)C(F)(F)F)c4)cc3)CC2)C1 [Navitoclax] (partner 0.5 µM)
In short: (§1)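 Cells from lung cancer lines were seeded into 1536-well plates and, one day later, dosed by pin tool. Treatments were either a single drug or a fixed dose of an anchor drug with five library-drug doses (not always all listed) in √10 steps. After 5 days, nuclei were stained in a one-step fixation (final 0.05% Triton X-100, 1% formaldehyde, 1 ug/ml Hoechst) and counted on 4× images, and relative viability is the treated-to-vehicle nuclei ratio, as the median of duplicate plates.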

Omipalisib + Luminespib = compound: COc1ncc(-c2ccc3nccc(-c4ccnnc4)c3c2)cc1NS(=O)(=O)c1ccc(F)cc1F [Omipalisib] + CCNC(=O)c1noc(-c2cc(C(C)C)c(O)cc2O)c1-c1ccc(CN2CCOCC2)cc1 [Luminespib] (partner 0.01 µM)
In short: as §1

Omipalisib + Crizotinib = compound: COc1ncc(-c2ccc3nccc(-c4ccnnc4)c3c2)cc1NS(=O)(=O)c1ccc(F)cc1F [Omipalisib] + C[C@@H](Oc1cc(-c2cnn(C3CCNCC3)c2)cnc1N)c1c(Cl)ccc(F)c1Cl [Crizotinib] (partner 1 µM)
In short: as §1

Cell Line: NCI-H2170
- relative viability (Omipalisib + Navitoclax; first compound 0.0003 µM): 0.414
- relative viability (Omipalisib + Navitoclax; first compound 0.003 µM): 0.28
- relative viability (Omipalisib + Navitoclax; first compound 0.03 µM): 0.222
- relative viability (Omipalisib + Luminespib; first compound 0.0003 µM): 0.543
- relative viability (Omipalisib + Luminespib; first compound 0.003 µM): 0.178
- relative viability (Omipalisib + Luminespib; first compound 0.03 µM): 0.189
- relative viability (Omipalisib + Crizotinib; first compound 0.0003 µM): 1.04
- relative viability (Omipalisib + Crizotinib; first compound 0.003 µM): 0.786
- relative viability (Omipalisib + Crizotinib; first compound 0.03 µM): 0.418

Cell Line: SK-LU-1
- relative viability (Omipalisib + Navitoclax; first compound 0.0003 µM): 0.926
- relative viability (Omipalisib + Navitoclax; first compound 0.003 µM): 0.237
- relative viability (Omipalisib + Navitoclax; first compound 0.03 µM): 0.625
- relative viability (Omipalisib + Luminespib; first compound 0.0003 µM): 0.206
- relative viability (Omipalisib + Luminespib; first compound 0.003 µM): 0.199
- relative viability (Omipalisib + Luminespib; first compound 0.03 µM): 0.19
- relative viability (Omipalisib + Crizotinib; first compound 0.0003 µM): 0.91
- relative viability (Omipalisib + Crizotinib; first compound 0.003 µM): 0.712
- relative viability (Omipalisib + Crizotinib; first compound 0.03 µM): 0.515

Cell Line: NCI-H650
- relative viability (Omipalisib + Luminespib; first compound 0.0003 µM): 0.81
- relative viability (Omipalisib + Luminespib; first compound 0.003 µM): 0.592
- relative viability (Omipalisib + Luminespib; first compound 0.03 µM): 0.378
- relative viability (Omipalisib + Crizotinib; first compound 0.0003 µM): 0.671
- relative viability (Omipalisib + Crizotinib; first compound 0.003 µM): 0.472
- relative viability (Omipalisib + Crizotinib; first compound 0.03 µM): 0.338

Cell Line: LOU-NH91
- relative viability (Omipalisib + Navitoclax; first compound 0.0003 µM): 0.635
- relative viability (Omipalisib + Navitoclax; first compound 0.003 µM): 0.585
- relative viability (Omipalisib + Navitoclax; first compound 0.03 µM): 0.346
- relative viability (Omipalisib + Luminespib; first compound 0.0003 µM): 0.345
- relative viability (Omipalisib + Luminespib; first compound 0.003 µM): 0.386
- relative viability (Omipalisib + Luminespib; first compound 0.03 µM): 0.337
- relative viability (Omipalisib + Crizotinib; first compound 0.0003 µM): 0.737
- relative viability (Omipalisib + Crizotinib; first compound 0.003 µM): 0.65
- relative viability (Omipalisib + Crizotinib; first compound 0.03 µM): 0.504

Cell Line: LK-2
- relative viability (Omipalisib + Navitoclax; first compound 0.0003 µM): 0.595
- relative viability (Omipalisib + Navitoclax; first compound 0.003 µM): 0.285
- relative viability (Omipalisib + Navitoclax; first compound 0.03 µM): 0.343
- relative viability (Omipalisib + Luminespib; first compound 0.0003 µM): 0.153
- relative viability (Omipalisib + Luminespib; first compound 0.003 µM): 0.2
- relative viability (Omipalisib + Luminespib; first compound 0.03 µM): 0.174
- relative viability (Omipalisib + Crizotinib; first compound 0.0003 µM): 0.241
- relative viability (Omipalisib + Crizotinib; first compound 0.003 µM): 0.234
- relative viability (Omipalisib + Crizotinib; first compound 0.03 µM): 0.247

Cell Line: LC-2-ad
- relative viability (Omipalisib + Navitoclax; first compound 0.0003 µM): 0.531
- relative viability (Omipalisib + Navitoclax; first compound 0.003 µM): 0.309
- relative viability (Omipalisib + Navitoclax; first compound 0.03 µM): 0.105
- relative viability (Omipalisib + Luminespib; first compound 0.0003 µM): 0.825
- relative viability (Omipalisib + Luminespib; first compound 0.003 µM): 1.05
- relative viability (Omipalisib + Luminespib; first compound 0.03 µM): 0.461
- relative viability (Omipalisib + Crizotinib; first compound 0.0003 µM): 0.478
- relative viability (Omipalisib + Crizotinib; first compound 0.003 µM): 0.395
- relative viability (Omipalisib + Crizotinib; first compound 0.03 µM): 0.253

Cell Line: NCI-H2085
- relative viability (Omipalisib + Navitoclax; first compound 0.0003 µM): 1.12
- relative viability (Omipalisib + Navitoclax; first compound 0.003 µM): 0.951
- relative viability (Omipalisib + Navitoclax; first compound 0.03 µM): 0.509
- relative viability (Omipalisib + Luminespib; first compound 0.0003 µM): 0.386
- relative viability (Omipalisib + Luminespib; first compound 0.003 µM): 0.352
- relative viability (Omipalisib + Luminespib; first compound 0.03 µM): 0.291
- relative viability (Omipalisib + Crizotinib; first compound 0.0003 µM): 0.789
- relative viability (Omipalisib + Crizotinib; first compound 0.003 µM): 0.886
- relative viability (Omipalisib + Crizotinib; first compound 0.03 µM): 0.407

Cell Line: H3255
- relative viability (Omipalisib + Navitoclax; first compound 0.0003 µM): 0.495
- relative viability (Omipalisib + Navitoclax; first compound 0.003 µM): 0.362
- relative viability (Omipalisib + Navitoclax; first compound 0.03 µM): 0.201
- relative viability (Omipalisib + Luminespib; first compound 0.0003 µM): 0.942
- relative viability (Omipalisib + Luminespib; first compound 0.003 µM): 0.786
- relative viability (Omipalisib + Luminespib; first compound 0.03 µM): 0.613
- relative viability (Omipalisib + Crizotinib; first compound 0.0003 µM): 0.859
- relative viability (Omipalisib + Crizotinib; first compound 0.003 µM): 0.811
- relative viability (Omipalisib + Crizotinib; first compound 0.03 µM): 0.421

Cell Line: UMC-11
- relative viability (Omipalisib + Navitoclax; first compound 0.0003 µM): 0.31
- relative viability (Omipalisib + Navitoclax; first compound 0.003 µM): 0.277
- relative viability (Omipalisib + Navitoclax; first compound 0.03 µM): 0.265
- relative viability (Omipalisib + Luminespib; first compound 0.0003 µM): 0.913
- relative viability (Omipalisib + Luminespib; first compound 0.003 µM): 0.775
- relative viability (Omipalisib + Luminespib; first compound 0.03 µM): 0.742
- relative viability (Omipalisib + Crizotinib; first compound 0.0003 µM): 0.491
- relative viability (Omipalisib + Crizotinib; first compound 0.003 µM): 0.588
- relative viability (Omipalisib + Crizotinib; first compound 0.03 µM): 0.434

Cell Line: NCI-H1395
- relative viability (Omipalisib + Navitoclax; first compound 0.0003 µM): 1.35
- relative viability (Omipalisib + Navitoclax; first compound 0.003 µM): 0.991
- relative viability (Omipalisib + Navitoclax; first compound 0.03 µM): 0.665
- relative viability (Omipalisib + Luminespib; first compound 0.0003 µM): 0.622
- relative viability (Omipalisib + Luminespib; first compound 0.003 µM): 0.662
- relative viability (Omipalisib + Luminespib; first compound 0.03 µM): 0.418

Cell Line: NCI-H1993
- relative viability (Omipalisib + Navitoclax; first compound 0.0003 µM): 0.722
- relative viability (Omipalisib + Navitoclax; first compound 0.003 µM): 0.703
- relative viability (Omipalisib + Navitoclax; first compound 0.03 µM): 0.618
- relative viability (Omipalisib + Luminespib; first compound 0.0003 µM): 0.806
- relative viability (Omipalisib + Luminespib; first compound 0.003 µM): 0.465
- relative viability (Omipalisib + Luminespib; first compound 0.03 µM): 0.485
- relative viability (Omipalisib + Crizotinib; first compound 0.0003 µM): 0.83
- relative viability (Omipalisib + Crizotinib; first compound 0.003 µM): 0.618
- relative viability (Omipalisib + Crizotinib; first compound 0.03 µM): 0.63

Cell Line: EPLC-272H
- relative viability (Omipalisib + Navitoclax; first compound 0.0003 µM): 1.12
- relative viability (Omipalisib + Navitoclax; first compound 0.003 µM): 0.945
- relative viability (Omipalisib + Navitoclax; first compound 0.03 µM): 0.327
- relative viability (Omipalisib + Luminespib; first compound 0.0003 µM): 0.191
- relative viability (Omipalisib + Luminespib; first compound 0.003 µM): 0.176
- relative viability (Omipalisib + Luminespib; first compound 0.03 µM): 0.156
- relative viability (Omipalisib + Crizotinib; first compound 0.0003 µM): 1.08
- relative viability (Omipalisib + Crizotinib; first compound 0.003 µM): 0.794
- relative viability (Omipalisib + Crizotinib; first compound 0.03 µM): 0.325

Cell Line: NCI-H1975
- relative viability (Omipalisib + Navitoclax; first compound 0.0003 µM): 1.03
- relative viability (Omipalisib + Navitoclax; first compound 0.003 µM): 0.635
- relative viability (Omipalisib + Navitoclax; first compound 0.03 µM): 0.24
- relative viability (Omipalisib + Luminespib; first compound 0.0003 µM): 0.142
- relative viability (Omipalisib + Luminespib; first compound 0.003 µM): 0.194
- relative viability (Omipalisib + Luminespib; first compound 0.03 µM): 0.2
- relative viability (Omipalisib + Crizotinib; first compound 0.0003 µM): 0.925
- relative viability (Omipalisib + Crizotinib; first compound 0.003 µM): 0.736
- relative viability (Omipalisib + Crizotinib; first compound 0.03 µM): 0.307

Cell Line: NCI-H358
- relative viability (Omipalisib + Luminespib; first compound 0.0003 µM): 0.325
- relative viability (Omipalisib + Luminespib; first compound 0.003 µM): 0.221
- relative viability (Omipalisib + Luminespib; first compound 0.03 µM): 0.0986
- relative viability (Omipalisib + Crizotinib; first compound 0.0003 µM): 0.502
- relative viability (Omipalisib + Crizotinib; first compound 0.003 µM): 0.6
- relative viability (Omipalisib + Crizotinib; first compound 0.03 µM): 0.303

Cell Line: HARA
- relative viability (Omipalisib + Navitoclax; first compound 0.0003 µM): 1.1
- relative viability (Omipalisib + Navitoclax; first compound 0.003 µM): 1.19
- relative viability (Omipalisib + Navitoclax; first compound 0.03 µM): 0.733
- relative viability (Omipalisib + Luminespib; first compound 0.0003 µM): 0.605
- relative viability (Omipalisib + Luminespib; first compound 0.003 µM): 0.621
- relative viability (Omipalisib + Luminespib; first compound 0.03 µM): 0.0924
- relative viability (Omipalisib + Crizotinib; first compound 0.0003 µM): 1.09
- relative viability (Omipalisib + Crizotinib; first compound 0.003 µM): 1.02
- relative viability (Omipalisib + Crizotinib; first compound 0.03 µM): 0.395

Cell Line: HOP-62
- relative viability (Omipalisib + Navitoclax; first compound 0.0003 µM): 1.1
- relative viability (Omipalisib + Navitoclax; first compound 0.003 µM): 1.19
- relative viability (Omipalisib + Navitoclax; first compound 0.03 µM): 0.81
- relative viability (Omipalisib + Luminespib; first compound 0.0003 µM): 0.961
- relative viability (Omipalisib + Luminespib; first compound 0.003 µM): 1.05
- relative viability (Omipalisib + Luminespib; first compound 0.03 µM): 0.883
- relative viability (Omipalisib + Crizotinib; first compound 0.0003 µM): 0.817
- relative viability (Omipalisib + Crizotinib; first compound 0.003 µM): 1
- relative viability (Omipalisib + Crizotinib; first compound 0.03 µM): 0.693

Cell Line: PC-3 [JPC-3]
- relative viability (Omipalisib + Navitoclax; first compound 0.0003 µM): 0.781
- relative viability (Omipalisib + Navitoclax; first compound 0.003 µM): 0.76
- relative viability (Omipalisib + Navitoclax; first compound 0.03 µM): 0.646
- relative viability (Omipalisib + Luminespib; first compound 0.0003 µM): 0.677
- relative viability (Omipalisib + Luminespib; first compound 0.003 µM): 0.587
- relative viability (Omipalisib + Luminespib; first compound 0.03 µM): 0.485
- relative viability (Omipalisib + Crizotinib; first compound 0.0003 µM): 0.922
- relative viability (Omipalisib + Crizotinib; first compound 0.003 µM): 1
- relative viability (Omipalisib + Crizotinib; first compound 0.03 µM): 0.889

Cell Line: NCI-H460
- relative viability (Omipalisib + Navitoclax; first compound 0.0003 µM): 1.06
- relative viability (Omipalisib + Navitoclax; first compound 0.003 µM): 0.61
- relative viability (Omipalisib + Navitoclax; first compound 0.03 µM): 0.143
- relative viability (Omipalisib + Luminespib; first compound 0.0003 µM): 0.0375
- relative viability (Omipalisib + Luminespib; first compound 0.003 µM): 0.0227
- relative viability (Omipalisib + Luminespib; first compound 0.03 µM): 0.0165
- relative viability (Omipalisib + Crizotinib; first compound 0.0003 µM): 0.772
- relative viability (Omipalisib + Crizotinib; first compound 0.003 µM): 0.589
- relative viability (Omipalisib + Crizotinib; first compound 0.03 µM): 0.132
